{"source": "paper PMC11679033", "about": "“Assessing the Potential Synergistic/Antagonistic Effects of Citrinin and Cannabidiol on SH-SY5Y, HepG2, HEK293 Cell Lines, and Human Lymphocytes” (Toxins, 2024)", "key": {"[1]": {"tested_on": "human peripheral blood lymphocytes", "assay": "Alkaline comet assay", "type": "cell-based", "conditions": "24 h; CIT 30 µM, CBD 1 µM, bleomycin 1.25 µg/mL", "protocol": "(§1) The experimental design included the establishment of lymphocyte cultures, and the 24 h treatments with the test compounds, performed according to the last OECD recommendations, given in the Test Guideline No. 487—In Vitro Mammalian Cell Micronucleus Test.\n(§2) The selection of specific concentrations of test compounds adhered to the guidelines for in vitro genotoxicity testing using comet assay. […] Solutions used in testing were prepared just prior to treatment by dissolving the test compounds in ethanol (Kemika, Zagreb, Croatia).\n(§3) Two independent trials, with six experimental groups each, were conducted. A total of six replicate cultures for every single experimental group were established. This step was carried out as follows: aliquots of heparinized blood (V = 600 μL per culture) were pipetted into a growth medium RPMI-1640 (Gibco, Grand Island, NY, USA) supplemented with 10% fetal calf serum (Gibco, Grand Island, NY, USA) and antibiotics (penicillin and streptomycin; Sigma-Aldrich, Steinheim, Germany). Lymphocytes were stimulated with a mitogen phytohemagglutinin (Remel, Lenexa, KS, USA) in order to induce cell division prior to exposure to the test chemicals. Cultures were maintained in the humidified atmosphere of 5% CO2 at 37 °C (Heraeus Hera Cell 240 incubator; Langenselbold, Germany).\n(§4) Negative controls (NCs) were non-treated lymphocytes. Solvent controls (SCs) were lymphocytes treated with ethanol (its final concentration in the culture corresponded to 0.03%). Positive controls (PCs) were lymphocytes treated for 24 h with bleomycin at 1.25 µg/mL (according to [69]). The other three groups were lymphocytes exposed to single CIT, single CBD, and their combination (CIT + CBD, at the same concentrations).\n(§5) Treatments with test compounds started 20 h after the initial establishment of the cell cultures and lasted for 24 h. Upon completion of the exposure, aliquots of 100 µL of the treated cultures were pipetted in sterile conditions and used to prepare microgels for the alkaline comet assay. The remaining content of flasks was further processed using Cytokinesis-Block Micronucleus Cytome (CBMN Cyt) Assay."}, "[2]": {"tested_on": "human peripheral blood lymphocytes", "assay": "Lymphocyte proliferation / cytotoxicity (CBPI, RI)", "type": "cell-based", "conditions": "24 h, citrinin 7.50 µg/mL, CBD 3.15 µg/mL, bleomycin 1.25 µg/mL", "text": "On the same slides, parameters of cell proliferation, cytostasis and cytotoxicity were studied, according to recommendations by OECD 2023 [67]. For that purpose, the numbers of mono-, bi-, tri-, and quadrinuclear cells (i.e., M1, M2, M3, M4) were scored at 400× magnification using a light microscope (Leitz, Oberkochen, Germany). The total number of M1 to M4 cells counted per experimental group was 3000 (i.e., 6 × 500 cells).\nBased on the scored ratios of M1 to M4 cells, the Cytokinesis-Block Proliferation Index (CBPI) was calculated, using the formula: CBPI = [(No. of mononucleated cells) + (2 × No. of binucleated cells) + (3 × No. of multinucleated cells)]/(Total number of cells).\nTo establish the relative number of cell cycles per cell during the period of exposure to cytoB in treated compared to control cultures, the Replication Index (RI) was also calculated according to the formula:RI = {[(<No. binucleated cells> + <2 × No. multinucleated cells>)/(Total number of cells in treated culture)]/[(<No. binucleated cells> + <2 × No. multinucleated cells>) […] (Total number of cells in control culture)]} × 100\nFinally, from the obtained values of RI, the cytotoxicity estimate was deduced, as % Cytotoxicity = […]."}, "[3]": {"tested_on": "human peripheral blood lymphocytes", "assay": "Cytokinesis-Block Micronucleus Cytome (CBMN Cyt) Assay", "conditions": "24 h, citrinin 30 µM, CBD 1 µM, bleomycin 1.25 µg/mL", "protocol": "as §1, §2, §3, §4, §5\nCBMN Cyt Assay was performed according to standard protocols proposed for micronucleus assay. Upon completion of the exposure, lymphocyte cultures were subjected to centrifugation at 100× g using a benchtop centrifuge (ROTOFIX 32A, Hettich, Tuttlingen, Germany). During this process, cells settled to the bottom of the tube. The growth medium with tested compounds was removed by pipetting, discarded and replaced with a fresh amount of complete growth medium RPMI-1640 that contained Cytochalasin B (cytoB; Sigma-Aldrich, Steinheim, Germany) at a final concentration of 6 µg/mL. This procedure was timed to the 44th hour of lymphocyte cultivation, as that time is a critical point for the addition of cytoB to inhibit cytokinesis and obtain binucleated cells. All treated and control cultures were further maintained in the previously described conditions at 37 °C until the end of the 72nd hour of cultivation, as proposed by protocols. Then, the preparation of microscopic slides started, which included harvesting of cells by centrifugation (100× g, ROTOFIX 32A centrifuge, Hettich, Tuttlingen, Germany), followed by hypotonic treatment (0.075 mol/L KCl; Kemika, Zagreb, Croatia), and a new round of centrifugation. The resulting sediments of cells were fixed in several repeating stages with methanol–acetic acid (3:1 v/v; both obtained from Kemika, Zagreb, Croatia) followed by centrifugation. The final lymphocyte suspension was dropped onto clean microscope slides."}}, "note": "Marks after values point to notes of the source that are not given here.", "data": [{"substance": "bleomycin [Positive Control]", "values": [{"measurement": "tail intensity, mean value ± SE", "setting": "[1]", "value": "14.81 ± 0.59", "unit": "%"}, {"measurement": "Cytokinesis-Block Proliferation Index", "setting": "[2]; 3000 cells scored", "value": "1.60^↓nc, sc, cit, cbd,&"}, {"measurement": "Cytotoxicity (%)", "setting": "[2]; deduced from RI", "value": 41.25, "unit": "%"}, {"measurement": "Replication Index (%)", "setting": "[2]; relative to negative control", "value": 58.75, "unit": "%"}, {"measurement": "Distribution of BNMN Cells with 1 MN", "setting": "[3]; in 6000 BN cells", "value": "99 ^a,b,c,d,e"}, {"measurement": "Distribution of BNMN Cells with 2 MNi", "setting": "[3]; in 6000 BN cells", "value": "20 ^a,b,c,d,e"}, {"measurement": "Distribution of BNMN Cells with 3 MNi", "setting": "[3]; in 6000 BN cells", "value": 3}, {"measurement": "Distribution of BNNB Cells with 1 NB", "setting": "[3]; in 6000 BN cells", "value": "85 ^a,b,c,d,e"}, {"measurement": "Distribution of BNNB Cells with 2 NBs", "setting": "[3]; in 6000 BN cells", "value": "12 ^a,b,c,d,e"}, {"measurement": "Micronuclei (MNi) and BNMN Cells: Total (BNNB)6000", "setting": "[3]; in 6000 BN cells", "value": "122 ^a,b,c,d,e"}, {"measurement": "Micronuclei (MNi) and BNMN Cells: Total (MNi)6000", "setting": "[3]; in 6000 BN cells", "value": "148 ^a,b,c,d,e"}, {"measurement": "Nuclear Buds (NBs) and BNNB Cells: Total (BNNB)6000", "setting": "[3]; in 6000 BN cells", "value": "97 ^a,b,c,d,e"}, {"measurement": "Nuclear Buds (NBs) and BNNB Cells: Total (NBs)6000", "setting": "[3]; in 6000 BN cells", "value": "109 ^a,b,c,d,e"}, {"measurement": "Nucleoplasmic Bridges (NPBs) and BNNPB Cells: Total (BNNPB)6000", "setting": "[3]; in 6000 BN cells", "value": "9 ^a,b,c,d,e"}, {"measurement": "Nucleoplasmic Bridges (NPBs) and BNNPB Cells: Total (NPBs)6000", "setting": "[3]; in 6000 BN cells", "value": "9 ^a,b,c,d,e"}, {"measurement": "Cell Death: Total (Apoptosis)6000", "setting": "[3]; in 6000 cells", "value": "94 ^a,b,c,d,e"}, {"measurement": "Cell Death: Total (Necrosis)6000", "setting": "[3]; in 6000 cells", "value": "71 ^a,b,c,d,e"}, {"measurement": "Micronuclei (MNi) and BNMN Cells: Mean (BNMN)1000 ± SD", "setting": "[3]; per 1000 BN cells", "value": "20.3 ± 2.9 ^a,b,c,d,e"}, {"measurement": "Micronuclei (MNi) and BNMN Cells: Mean (MNi)1000 ± SD", "setting": "[3]; per 1000 BN cells", "value": "24.7 ± 2.5 ^a,b,c,d,e"}, {"measurement": "Nuclear Buds (NBs) and BNNB Cells: Mean (BNNB)1000 ± SD", "setting": "[3]; per 1000 BN cells", "value": "16.2 ± 5.0 ^a,b,c,d,e"}, {"measurement": "Nuclear Buds (NBs) and BNNB Cells: Mean (NBs)1000 ± SD", "setting": "[3]; per 1000 BN cells", "value": "18.2 ± 6.5 ^a,b,c,d,e"}, {"measurement": "Nucleoplasmic Bridges (NPBs) and BNNPB Cells: Mean (BNNPB)1000 ± SD", "setting": "[3]; per 1000 BN cells", "value": "1.5 ± 0.8 ^a,b,c,d,e"}, {"measurement": "Nucleoplasmic Bridges (NPBs) and BNNPB Cells: Mean (NPBs)1000 ± SD", "setting": "[3]; per 1000 BN cells", "value": "1.5 ± 0.8 ^a,b,c,d,e"}, {"measurement": "Cell Death: Mean (Apoptosis)1000 ± SD", "setting": "[3]; per 1000 cells", "value": "15.7 ± 5.6 ^a,b,c,d,e"}, {"measurement": "Cell Death: Mean (Necrosis)1000 ± SD", "setting": "[3]; per 1000 cells", "value": "11.8 ± 3.6 ^a,b,c,d,e"}]}]}
